Results reported in US6783949B1, “Processes for determining whether a test substance contains lipases or lipase inhibitors” (Aventis Pharma Deutschland GmbH, priority 1999, dated 2004).

Biological target: T1, HSL (Rattus norvegicus, UniProt P15304)
T1 construct: The partially purified HSL can be stored at −70° C. for 4 to 6 weeks; from tissue; host or cells: rat epididymal fat cells (male Wistar rats)
T1 sequence (P15304 1-768 isoform P15304-2): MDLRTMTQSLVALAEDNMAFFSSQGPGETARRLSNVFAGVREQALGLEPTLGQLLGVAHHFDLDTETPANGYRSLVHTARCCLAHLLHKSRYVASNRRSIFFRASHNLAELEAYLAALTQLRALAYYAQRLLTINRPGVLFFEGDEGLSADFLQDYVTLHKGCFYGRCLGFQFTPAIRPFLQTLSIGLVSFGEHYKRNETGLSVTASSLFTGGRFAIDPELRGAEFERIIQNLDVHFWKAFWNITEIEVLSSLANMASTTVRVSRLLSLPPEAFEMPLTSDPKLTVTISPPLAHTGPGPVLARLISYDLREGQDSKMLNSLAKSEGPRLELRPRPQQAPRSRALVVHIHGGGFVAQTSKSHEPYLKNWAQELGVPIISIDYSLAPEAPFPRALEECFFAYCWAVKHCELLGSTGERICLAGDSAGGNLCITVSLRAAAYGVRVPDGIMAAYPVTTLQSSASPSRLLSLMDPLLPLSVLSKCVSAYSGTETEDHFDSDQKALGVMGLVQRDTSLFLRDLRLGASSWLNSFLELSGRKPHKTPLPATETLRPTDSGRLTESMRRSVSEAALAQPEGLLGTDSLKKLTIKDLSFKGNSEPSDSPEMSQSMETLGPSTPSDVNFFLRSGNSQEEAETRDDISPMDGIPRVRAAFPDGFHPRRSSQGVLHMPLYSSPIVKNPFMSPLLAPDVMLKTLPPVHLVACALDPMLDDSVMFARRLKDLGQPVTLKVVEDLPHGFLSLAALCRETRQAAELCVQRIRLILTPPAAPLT
Assay: Indirect NAG assay (extinction increase at 481 nm)
Type: biochemical
Method: A typical reaction is carried out at 30° C. for 60 min, for example in 1.5 ml Eppendorf vessels or 96-hole plates. […] 180 μl of the substrate solution (20 μg/ml of phosphatidylcholine, 10 μg/ml of phosphatidylinositol, 50 μg/ml of NAG in assay buffer) are added. After a preincubation for 15 min at 30° C., 20 μl of HSL in assay buffer are pipetted in and the extinction is immediately measured (see above) at 481 nm in a cuvette photometer (0.5 ml cuvette) or microtiter plate reader. After a certain incubation time, which is variable and depends on the chosen enzyme concentration and can be between 2 and 240 minutes, in this case incubation at 30° C. for 60 min, the extinction is measured again. The increase in the extinction in the yellow region, in this case at 481 nm, is a measure of the enzyme activity.
Isolated rat fat cells are obtained from epididymal fatty tissue from untreated male rats (Wistar, 220-250 g) by collagenase treatment according to published processes. The fat cells from 10 rats are washed three times by flotation with 50 ml each of homogenization buffer ([…], pH 7.4, 0.25 M sucrose, 1 mM ethylenediamine-N,N,N′,N′-tetraacetic acid (EDTA), 1 mM dithiothreitol (DTT), 10 μg/ml of leupeptin, 10 μg/ml of antipain, 20 μg/ml of pepstatin) and finally taken up in 10 ml of homogenization buffer. The fat cells are homogenized in a Teflon-in-glass homogenizer (Braun-Melsungen) by 10 strokes at 1500 rpm and 15° C. The homogenizate is centrifuged (Sorvall SM24 tubes, 5000 rpm, 10 min, 4° C.). The […] between the overlying fatty layer and the pellet is removed and the centrifugation is repeated. The […] resulting from this is centrifuged again (Sorvall SM24 tubes, 20,000 rpm, 45 min, 4° C.). […] After incubation for 60 min at 4° C. (shake at intervals of 15 min), the batch is centrifuged (Sorvall SM24 tubes, 3000 rpm, 10 min, 4° C.). The supernatant is brought to pH 5.2 by addition of glacial acetic acid and incubated at 4° C. for 30 min. […] The suspension is dialyzed overnight at 4° C. against 25 mM TRIS/HCl, pH 7.4, 50% glycerol, 1 mM DTT, and 10 μg/ml of leupeptin, pepstatin, and antipain and then applied to a hydroxylapatite column (0.1 g per 1 ml of suspension, equilibrated with 10 mM potassium phosphate, pH 7.0, 30% glycerol, 1 mM DTT). The column is washed with four volumes of equilibration buffer at a flow rate of 20 to 30 ml/h. The HSL is eluted with a volume of equilibration buffer which contains 0.5 M potassium phosphate, then dialyzed (see above) and concentrated 5 to 10 times by ultrafiltration (Amicon Diaflo PM 10 filter) at 4° C. The partially purified HSL can be stored at −70° C. for 4 to 6 weeks.
6 mg of phosphatidylcholine and 6 mg of phosphatidylinositol are dissolved in 1 ml of chloroform each. 10 mg of NAG are dissolved in 1 ml of chloroform. […] The chloroform (225 μl total volume) is completely removed by overblowing with a stream of N2. The dried substrate can be stored at 4° C. for up to three days. For the preparation of the phospholipid vesicles/micelles having intercalated NAG (on the test day), the dried substrate is taken up in 20 ml of assay buffer (25 mM TRIS/HCl, pH 7.4; 150 mM NaCl) and two ultrasonic treatments with an ultrasonic probe (Branson Sonifier type 11, standard microtip): 1st treatment setting 2, 2×1 min, in between in each case 1 min on ice; 2nd treatment setting 4, 2×1 min, in between in each case 1 min on ice. […] Before use as a substrate (within the next 2 h), the solution is additionally incubated on ice for 15 min.
The assay is carried out at 30° C. for 60 min in 1.5 ml Eppendorf vessels or 96-hole plates.

[1] = HSL 40 μg, 60 min, NAG 0.05 mg/ml
[2] = HSL 60 μg, 60 min, NAG 0.05 mg/ml
[3] = HSL 80 μg, 60 min, NAG 0.05 mg/ml

For `O=C(CCCCCCCCCCCNc1ccc([N+](=O)[O-])c2nonc12)OCC(O)CO` (centres unmarked) [Compound (3)], the “Increase in the absorption at 481 nm” value (HSL 40 μg, 20 min, NAG 0.05 mg/ml) was 477 ± 182 arb. units, the “Increase in the absorption at 481 nm” value (HSL 40 μg, 30 min, NAG 0.05 mg/ml) was 2249 ± 286 arb. units and the “Increase in the absorption at 481 nm” value (HSL 40 μg, 45 min, NAG 0.05 mg/ml) was 2968 ± 321 arb. units. The “Absorption change, Decrease, 550 nm” value [1] was 91 ± 19 arb. units, the “Absorption change, Increase, 481 nm” value [1] was 4623 ± 511 arb. units and the “Increase in the absorption at 481 nm” value [1] was 4065 ± 399 arb. units. The “Increase in the absorption at 481 nm” value (HSL 40 μg, 75 min, NAG 0.05 mg/ml) was 4834 ± 462 arb. units, the “Increase in the absorption at 481 nm” value (HSL 40 μg, 90 min, NAG 0.05 mg/ml) was 5472 ± 813 arb. units and the “Increase in the absorption at 481 nm” value (HSL 40 μg, 120 min, NAG 0.05 mg/ml) was 5702 ± 531 arb. units. The “Increase in the absorption at 481 nm” value (HSL 40 μg, 180 min, NAG 0.05 mg/ml) was 5961 ± 560 arb. units, the “Absorption change, Decrease, 550 nm” value [2] was 62 ± 17 arb. units and the “Absorption change, Increase, 481 nm” value [2] was 5466 ± 602 arb. units. For the same compound, the “Absorption change, Decrease, 550 nm” value [3] was 54 ± 15 arb. units, the “Absorption change, Increase, 481 nm” value [3] was 5913 ± 485 arb. units and the “Activity relative to HSL” value (HSL, conditions optimized for HSL) was 100%. The “Increase in the absorption at 481 nm” value (NAG 0.002 mg/ml, HSL 5 μg, 60 min) was 61 ± 9 arb. units, the “Increase in the absorption at 481 nm” value (NAG 0.002 mg/ml, HSL 20 μg, 60 min) was 194 ± 23 arb. units and the “Increase in the absorption at 481 nm” value (NAG 0.002 mg/ml, HSL 40 μg, 60 min) was 525 ± 77 arb. units. The “Increase in the absorption at 481 nm” value (NAG 0.005 mg/ml, HSL 5 μg, 60 min) was 109 ± 17 arb. units, the “Increase in the absorption at 481 nm” value (NAG 0.005 mg/ml, HSL 20 μg, 60 min) was 342 ± 58 arb. units and the “Increase in the absorption at 481 nm” value (NAG 0.005 mg/ml, HSL 40 μg, 60 min) was 1420 ± 122 arb. units. The “Increase in the absorption at 481 nm” value (NAG 0.01 mg/ml, HSL 5 μg, 60 min) was 227 ± 31 arb. units, the “Increase in the absorption at 481 nm” value (NAG 0.01 mg/ml, HSL 20 μg, 60 min) was 852 ± 77 arb. units and the “Increase in the absorption at 481 nm” value (NAG 0.01 mg/ml, HSL 40 μg, 60 min) was 2745 ± 264 arb. units. For the same compound, the “Increase in the absorption at 481 nm” value (NAG 0.02 mg/ml, HSL 5 μg, 60 min) was 388 ± 45 arb. units, the “Increase in the absorption at 481 nm” value (NAG 0.02 mg/ml, HSL 20 μg, 60 min) was 1758 ± 195 arb. units and the “Increase in the absorption at 481 nm” value (NAG 0.02 mg/ml, HSL 40 μg, 60 min) was 6705 ± 532 arb. units. For the same compound, the “Increase in the absorption at 481 nm” value (NAG 0.05 mg/ml, HSL 5 μg, 60 min) was 705 ± 61 arb. units, the “Increase in the absorption at 481 nm” value (NAG 0.05 mg/ml, HSL 20 μg, 60 min) was 3002 ± 409 arb. units and the “Increase in the absorption at 481 nm” value (NAG 0.05 mg/ml, HSL 40 μg, 60 min) was 11547 ± 912 arb. units. The “Increase in the absorption at 481 nm” value (NAG 0.075 mg/ml, HSL 5 μg, 60 min) was 1121 ± 107 arb. units and the “Increase in the absorption at 481 nm” value (NAG 0.075 mg/ml, HSL 20 μg, 60 min) was 768 ± 502 arb. units.
